According to ChEMBL document CHEMBL4507291 (2021):

Tests used:
[1] = test system: Tyrosine-protein kinase ABL1 (Homo sapiens), P00519 [G250E]; experiment: ABL1 G250E Kinase screen; details: Compound concentration 1.0 uM
[2] = biological target: Phosphorylase b kinase gamma catalytic chain, skeletal muscle/heart isoform (Homo sapiens) (UniProt Q16816); experiment: PHKG1 Kinase screen; details: Compound concentration 1.0 uM
[3] = biological target: Muscarinic acetylcholine receptor M3 (Homo sapiens) (UniProt P20309); details: Compound concentration 10.0 uM
[4] = biological target: T1, Serine/threonine-protein kinase Sgk2 (Homo sapiens) (UniProt Q9HBY8); experiment: SGK2 Kinase screen; details: Compound concentration 1.0 uM
T1 sequence (whole entry): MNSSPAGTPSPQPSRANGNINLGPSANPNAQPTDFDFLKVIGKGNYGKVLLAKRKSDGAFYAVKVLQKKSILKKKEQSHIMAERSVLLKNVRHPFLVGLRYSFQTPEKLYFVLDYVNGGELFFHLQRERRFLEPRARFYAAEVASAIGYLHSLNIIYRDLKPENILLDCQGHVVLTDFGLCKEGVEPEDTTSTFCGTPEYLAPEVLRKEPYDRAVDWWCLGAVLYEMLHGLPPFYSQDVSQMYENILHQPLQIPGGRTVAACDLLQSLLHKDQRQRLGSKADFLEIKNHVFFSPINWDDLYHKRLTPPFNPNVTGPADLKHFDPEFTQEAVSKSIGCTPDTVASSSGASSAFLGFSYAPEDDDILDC

Rattus norvegicus [5] = organism: Rattus norvegicus; experiment: Inhibition of Glutamate, NMDA, Phencyclidine at 10 µM in the Eurofins-Panlabs radioligand binding assay (Eurofins_assay_233000); format: protein-complex assay; details: Compound concentration 10.0 uM
[6] = biological target: Protein-tyrosine kinase 2-beta (Homo sapiens) (UniProt Q14289); experiment: PTK2B (FAK2) Kinase screen; details: Compound concentration 1.0 uM
[7] = biological target: T2, Rhodopsin kinase GRK7 (Homo sapiens) (UniProt Q8WTQ7); experiment: GRK7 Kinase screen; details: Compound concentration 1.0 uM
T2 sequence (whole entry): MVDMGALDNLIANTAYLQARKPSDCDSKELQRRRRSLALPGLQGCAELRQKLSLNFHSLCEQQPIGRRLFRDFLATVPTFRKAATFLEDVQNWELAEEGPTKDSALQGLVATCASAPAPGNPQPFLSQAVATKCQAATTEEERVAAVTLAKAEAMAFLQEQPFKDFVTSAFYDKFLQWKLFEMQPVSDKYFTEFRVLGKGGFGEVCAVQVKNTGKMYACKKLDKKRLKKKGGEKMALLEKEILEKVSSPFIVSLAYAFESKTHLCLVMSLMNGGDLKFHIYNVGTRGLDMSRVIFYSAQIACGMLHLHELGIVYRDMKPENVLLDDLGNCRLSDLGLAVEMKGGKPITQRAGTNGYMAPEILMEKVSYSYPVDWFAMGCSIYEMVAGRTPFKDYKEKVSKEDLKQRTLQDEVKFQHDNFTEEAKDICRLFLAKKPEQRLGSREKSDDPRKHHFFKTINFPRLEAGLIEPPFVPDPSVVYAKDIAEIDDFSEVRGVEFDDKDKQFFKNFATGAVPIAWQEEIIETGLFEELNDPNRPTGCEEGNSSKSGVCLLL

[8] = biological target: Calcium/calmodulin-dependent protein kinase kinase 1 (Homo sapiens) (UniProt Q8N5S9); experiment: CAMKK1 (CAMKKA) Kinase screen; details: Compound concentration 1.0 uM
[9] = biological target: Aurora kinase B (Homo sapiens) (UniProt Q96GD4); experiment: AURKB (Aurora B) Kinase screen; details: Compound concentration 1.0 uM
[10] = biological target: Platelet-derived growth factor receptor beta (Homo sapiens) (UniProt P09619); experiment: PDGFRB (PDGFR beta) Kinase screen; details: Compound concentration 1.0 uM
[11] = biological target: Tyrosine-protein kinase receptor UFO (Homo sapiens) (UniProt P30530); experiment: AXL Kinase screen; details: Compound concentration 1.0 uM
[12] = biological target: Serine/threonine-protein kinase 26 (Homo sapiens) (UniProt Q9P289); experiment: MST4 Kinase screen; details: Compound concentration 1.0 uM
Rattus norvegicus [13] = organism: Rattus norvegicus; experiment: Glutamate, NMDA, Polyamine Eurofins-Panlabs radioligand binding assay; format: protein-complex assay; parameters: ligand concentration 2 nM; details: Compound concentration 10.0 uM
[14] = biological target: Focal adhesion kinase 1 (Homo sapiens) (UniProt Q05397); experiment: PTK2 (FAK) Kinase screen; details: Compound concentration 1.0 uM
[15] = biological target: T3, Serine/threonine-protein kinase Sgk3 (Homo sapiens) (UniProt Q96BR1); experiment: SGKL (SGK3) Kinase screen; details: Compound concentration 1.0 uM
T3 sequence (whole entry): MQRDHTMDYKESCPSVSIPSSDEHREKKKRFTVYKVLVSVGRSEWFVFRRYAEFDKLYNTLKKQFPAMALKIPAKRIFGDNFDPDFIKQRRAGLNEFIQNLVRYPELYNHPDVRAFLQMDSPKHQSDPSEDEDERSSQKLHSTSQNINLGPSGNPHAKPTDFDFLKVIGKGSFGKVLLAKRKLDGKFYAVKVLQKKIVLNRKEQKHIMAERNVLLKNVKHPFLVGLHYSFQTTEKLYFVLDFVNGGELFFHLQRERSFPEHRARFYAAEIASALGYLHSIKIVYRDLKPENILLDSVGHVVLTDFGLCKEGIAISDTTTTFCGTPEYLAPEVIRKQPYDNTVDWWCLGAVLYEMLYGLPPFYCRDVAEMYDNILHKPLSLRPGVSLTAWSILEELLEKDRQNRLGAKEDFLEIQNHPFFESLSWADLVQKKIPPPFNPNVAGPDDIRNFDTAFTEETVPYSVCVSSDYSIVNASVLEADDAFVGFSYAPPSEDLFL

[16] = biological target: AMP-activated protein kinase (AMPK) alpha-1/beta-1/gamma-1 (Homo sapiens) (UniProt P54619+Q9Y478+Q13131); experiment: AMPK A1/B1/G1 Kinase screen; format: protein-complex assay; details: Compound concentration 1.0 uM
[17] = biological target: Vasopressin V1a receptor (Homo sapiens) (UniProt P37288); details: Compound concentration 10.0 uM
[18] = biological target: Mitogen-activated protein kinase kinase kinase 14 (Homo sapiens) (UniProt Q99558); experiment: MAP3K14 (NIK) Kinase screen; details: Compound concentration 1.0 uM
[19] = biological target: T4, Alpha-2B adrenergic receptor (Homo sapiens) (UniProt P18089); details: Compound concentration 10.0 uM
T4 sequence (whole entry): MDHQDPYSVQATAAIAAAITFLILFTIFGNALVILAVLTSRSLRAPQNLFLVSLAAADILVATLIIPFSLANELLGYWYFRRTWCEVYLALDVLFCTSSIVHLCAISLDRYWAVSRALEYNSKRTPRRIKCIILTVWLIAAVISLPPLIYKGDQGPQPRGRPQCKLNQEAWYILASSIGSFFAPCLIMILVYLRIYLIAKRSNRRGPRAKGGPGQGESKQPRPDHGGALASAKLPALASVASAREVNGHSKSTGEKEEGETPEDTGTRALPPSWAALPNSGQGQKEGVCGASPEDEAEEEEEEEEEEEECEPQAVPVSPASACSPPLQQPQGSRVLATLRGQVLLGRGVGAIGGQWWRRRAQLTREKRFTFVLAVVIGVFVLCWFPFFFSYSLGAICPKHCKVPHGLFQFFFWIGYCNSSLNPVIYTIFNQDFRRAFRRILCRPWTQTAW

[20] = biological target: Beta-1 adrenergic receptor (Homo sapiens) (UniProt P08588); details: Compound concentration 10.0 uM

Measured: inhibition

Sequence of Platelet-derived growth factor receptor beta (Homo sapiens) (P09619 whole entry): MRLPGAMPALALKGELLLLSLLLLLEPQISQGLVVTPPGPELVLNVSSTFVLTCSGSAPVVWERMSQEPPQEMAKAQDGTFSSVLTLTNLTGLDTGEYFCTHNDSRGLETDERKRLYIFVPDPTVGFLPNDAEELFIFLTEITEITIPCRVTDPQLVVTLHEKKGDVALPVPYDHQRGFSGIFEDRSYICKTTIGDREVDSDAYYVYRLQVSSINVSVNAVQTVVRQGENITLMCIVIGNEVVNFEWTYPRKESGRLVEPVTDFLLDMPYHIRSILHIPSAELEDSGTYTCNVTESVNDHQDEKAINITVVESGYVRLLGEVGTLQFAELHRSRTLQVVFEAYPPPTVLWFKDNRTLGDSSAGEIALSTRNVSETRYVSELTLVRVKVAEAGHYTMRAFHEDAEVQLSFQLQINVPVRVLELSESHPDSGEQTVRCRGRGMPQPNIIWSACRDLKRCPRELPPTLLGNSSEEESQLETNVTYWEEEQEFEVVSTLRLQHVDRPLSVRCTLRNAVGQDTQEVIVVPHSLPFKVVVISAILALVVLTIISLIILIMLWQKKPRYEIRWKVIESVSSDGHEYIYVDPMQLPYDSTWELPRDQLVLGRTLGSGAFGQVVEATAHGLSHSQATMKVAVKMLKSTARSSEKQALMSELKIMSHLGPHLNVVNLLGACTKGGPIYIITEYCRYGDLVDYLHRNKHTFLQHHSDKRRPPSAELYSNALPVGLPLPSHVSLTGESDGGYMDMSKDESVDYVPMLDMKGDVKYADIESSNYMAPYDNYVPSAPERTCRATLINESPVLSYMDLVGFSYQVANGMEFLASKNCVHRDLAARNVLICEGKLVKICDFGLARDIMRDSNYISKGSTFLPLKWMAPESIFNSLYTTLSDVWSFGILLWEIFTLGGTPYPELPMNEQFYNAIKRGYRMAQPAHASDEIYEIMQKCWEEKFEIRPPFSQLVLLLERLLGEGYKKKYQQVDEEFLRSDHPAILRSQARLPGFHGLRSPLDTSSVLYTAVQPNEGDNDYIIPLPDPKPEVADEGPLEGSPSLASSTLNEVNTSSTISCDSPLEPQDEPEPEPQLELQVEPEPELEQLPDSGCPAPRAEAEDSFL
Sequence of Muscarinic acetylcholine receptor M3 (Homo sapiens) (P20309 whole entry, looked up): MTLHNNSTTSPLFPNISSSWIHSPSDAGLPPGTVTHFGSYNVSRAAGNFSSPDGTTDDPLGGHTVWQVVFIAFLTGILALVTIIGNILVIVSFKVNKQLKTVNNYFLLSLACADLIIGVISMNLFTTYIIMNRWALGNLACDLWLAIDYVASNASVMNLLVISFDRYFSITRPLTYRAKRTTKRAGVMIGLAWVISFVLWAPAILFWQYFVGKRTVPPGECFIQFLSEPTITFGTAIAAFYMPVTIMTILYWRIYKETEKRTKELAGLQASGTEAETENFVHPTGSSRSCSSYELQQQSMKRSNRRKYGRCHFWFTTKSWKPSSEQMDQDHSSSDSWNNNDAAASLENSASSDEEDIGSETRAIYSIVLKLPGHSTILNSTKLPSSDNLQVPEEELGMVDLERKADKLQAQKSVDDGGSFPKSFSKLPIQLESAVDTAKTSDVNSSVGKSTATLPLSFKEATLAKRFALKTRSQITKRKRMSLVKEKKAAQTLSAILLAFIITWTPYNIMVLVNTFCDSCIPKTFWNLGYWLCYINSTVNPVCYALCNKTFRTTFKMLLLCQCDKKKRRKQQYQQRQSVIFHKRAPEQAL
Sequence of Vasopressin V1a receptor (Homo sapiens) (P37288 whole entry, looked up): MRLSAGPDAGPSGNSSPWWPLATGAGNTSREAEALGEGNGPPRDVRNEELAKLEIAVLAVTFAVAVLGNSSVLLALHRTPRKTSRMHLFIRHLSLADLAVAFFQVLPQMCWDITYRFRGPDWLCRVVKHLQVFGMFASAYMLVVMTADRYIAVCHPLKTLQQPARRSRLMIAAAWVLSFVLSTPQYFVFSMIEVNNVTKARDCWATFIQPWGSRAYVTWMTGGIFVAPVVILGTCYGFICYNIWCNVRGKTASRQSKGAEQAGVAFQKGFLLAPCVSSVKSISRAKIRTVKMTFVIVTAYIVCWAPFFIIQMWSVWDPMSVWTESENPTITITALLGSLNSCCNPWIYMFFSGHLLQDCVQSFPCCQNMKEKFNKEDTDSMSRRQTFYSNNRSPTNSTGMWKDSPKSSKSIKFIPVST
Sequence of Focal adhesion kinase 1 (Homo sapiens) (Q05397 2-1052 limits assumed): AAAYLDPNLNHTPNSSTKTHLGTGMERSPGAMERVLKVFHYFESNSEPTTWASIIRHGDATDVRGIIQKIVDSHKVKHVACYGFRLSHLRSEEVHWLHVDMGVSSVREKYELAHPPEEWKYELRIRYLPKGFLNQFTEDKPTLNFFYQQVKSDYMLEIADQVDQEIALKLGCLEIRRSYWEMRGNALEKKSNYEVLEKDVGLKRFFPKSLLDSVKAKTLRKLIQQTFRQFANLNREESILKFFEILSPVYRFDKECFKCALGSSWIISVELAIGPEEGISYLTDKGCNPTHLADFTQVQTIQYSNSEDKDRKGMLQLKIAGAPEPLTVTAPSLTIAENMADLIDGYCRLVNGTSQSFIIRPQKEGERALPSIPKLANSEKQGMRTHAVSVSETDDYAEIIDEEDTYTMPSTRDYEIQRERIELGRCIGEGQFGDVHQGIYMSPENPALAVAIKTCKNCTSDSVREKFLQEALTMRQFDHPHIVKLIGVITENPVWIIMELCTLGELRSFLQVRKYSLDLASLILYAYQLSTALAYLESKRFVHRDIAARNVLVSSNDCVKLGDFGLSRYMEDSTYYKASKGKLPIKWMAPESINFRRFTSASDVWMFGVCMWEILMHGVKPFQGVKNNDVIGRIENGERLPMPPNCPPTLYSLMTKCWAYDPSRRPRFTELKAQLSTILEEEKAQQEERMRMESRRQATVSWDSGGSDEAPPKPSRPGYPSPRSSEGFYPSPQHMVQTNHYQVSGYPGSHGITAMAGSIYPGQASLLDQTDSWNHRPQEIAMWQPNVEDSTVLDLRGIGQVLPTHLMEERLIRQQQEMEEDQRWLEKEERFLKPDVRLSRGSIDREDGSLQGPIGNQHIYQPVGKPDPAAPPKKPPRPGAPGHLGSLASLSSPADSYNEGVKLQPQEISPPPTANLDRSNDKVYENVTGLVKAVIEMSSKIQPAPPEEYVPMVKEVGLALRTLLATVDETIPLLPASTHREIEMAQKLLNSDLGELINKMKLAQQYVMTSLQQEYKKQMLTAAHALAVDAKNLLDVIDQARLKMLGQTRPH
Sequence of Tyrosine-protein kinase receptor UFO (Homo sapiens) (P30530 whole entry): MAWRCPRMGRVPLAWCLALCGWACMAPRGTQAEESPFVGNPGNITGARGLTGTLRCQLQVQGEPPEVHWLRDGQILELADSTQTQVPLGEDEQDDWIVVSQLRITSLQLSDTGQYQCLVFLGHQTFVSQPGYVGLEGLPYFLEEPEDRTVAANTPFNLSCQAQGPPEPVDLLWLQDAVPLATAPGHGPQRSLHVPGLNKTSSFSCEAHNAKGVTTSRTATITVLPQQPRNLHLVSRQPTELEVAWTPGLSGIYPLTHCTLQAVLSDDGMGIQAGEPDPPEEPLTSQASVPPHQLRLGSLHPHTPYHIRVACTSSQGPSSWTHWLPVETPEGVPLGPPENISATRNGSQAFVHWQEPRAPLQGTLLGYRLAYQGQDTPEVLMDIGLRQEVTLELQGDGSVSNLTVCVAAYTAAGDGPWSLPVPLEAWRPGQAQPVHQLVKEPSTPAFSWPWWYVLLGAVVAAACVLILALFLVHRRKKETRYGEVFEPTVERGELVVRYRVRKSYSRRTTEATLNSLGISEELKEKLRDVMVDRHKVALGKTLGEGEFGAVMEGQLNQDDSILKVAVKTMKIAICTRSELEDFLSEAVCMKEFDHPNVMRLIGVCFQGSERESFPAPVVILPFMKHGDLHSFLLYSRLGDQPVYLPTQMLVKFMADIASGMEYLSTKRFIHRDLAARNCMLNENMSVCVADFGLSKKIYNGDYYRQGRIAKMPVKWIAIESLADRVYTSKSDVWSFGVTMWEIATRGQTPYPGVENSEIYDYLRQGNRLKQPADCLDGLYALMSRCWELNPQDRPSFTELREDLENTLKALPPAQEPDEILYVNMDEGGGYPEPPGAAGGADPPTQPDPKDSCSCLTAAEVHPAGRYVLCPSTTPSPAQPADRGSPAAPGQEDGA
Sequence of Phosphorylase b kinase gamma catalytic chain, skeletal muscle/heart isoform (Homo sapiens) (Q16816 whole entry, looked up, canonical isoform): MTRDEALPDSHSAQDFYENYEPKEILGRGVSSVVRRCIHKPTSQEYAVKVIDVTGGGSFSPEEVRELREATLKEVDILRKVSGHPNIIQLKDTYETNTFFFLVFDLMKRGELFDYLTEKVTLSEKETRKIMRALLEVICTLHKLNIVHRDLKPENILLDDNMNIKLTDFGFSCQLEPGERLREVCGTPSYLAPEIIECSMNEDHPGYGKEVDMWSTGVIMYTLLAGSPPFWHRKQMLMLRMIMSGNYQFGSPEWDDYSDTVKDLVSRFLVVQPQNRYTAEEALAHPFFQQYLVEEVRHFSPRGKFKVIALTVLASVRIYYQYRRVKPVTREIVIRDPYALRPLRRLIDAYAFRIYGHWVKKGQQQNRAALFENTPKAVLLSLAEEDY
Sequence of Beta-1 adrenergic receptor (Homo sapiens) (P08588 whole entry, looked up): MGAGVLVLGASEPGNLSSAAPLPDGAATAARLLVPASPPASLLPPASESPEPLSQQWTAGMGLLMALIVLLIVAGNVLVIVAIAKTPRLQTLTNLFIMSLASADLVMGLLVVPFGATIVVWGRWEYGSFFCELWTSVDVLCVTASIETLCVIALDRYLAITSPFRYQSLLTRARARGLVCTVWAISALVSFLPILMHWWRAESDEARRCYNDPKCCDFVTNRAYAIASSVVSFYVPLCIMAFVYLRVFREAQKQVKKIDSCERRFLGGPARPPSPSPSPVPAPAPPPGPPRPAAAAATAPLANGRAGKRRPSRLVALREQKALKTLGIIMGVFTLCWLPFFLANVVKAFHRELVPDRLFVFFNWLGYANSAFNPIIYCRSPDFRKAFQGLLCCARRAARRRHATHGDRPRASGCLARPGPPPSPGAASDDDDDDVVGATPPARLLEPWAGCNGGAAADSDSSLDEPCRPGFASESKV

C[C@@H]1CN(c2cc(-c3n[nH]c4ccc(OC5(C)CC5)cc34)ncn2)C[C@H](C)O1 [MLi-2]
inactive: [1] 4.45% | [2] 0.801% | [3] 26% | [4] 1.36% | Rattus norvegicus [5] -1% | [6] 2.48% | [7] 4.4% | [8] 12.6% | [9] 16.2% | [10] 6.43% | [11] 4.79% | [12] 6.89% | Rattus norvegicus [13] 19% | [14] 14.2% | [15] 0.213% | [16] -3.77% | [17] -9% | [18] 78.8% | [19] 2%

C[C@@H]1CN(c2cc(-c3nn(C)c4ccc(OC5(C)CC5)cc34)ncn2)C[C@H](C)O1 [MLi-2-NC]
inactive: [20] 5.75%
